Measured values from patent publication US10954228B2 (NATIONAL INSTITUTES OF HEALTH, UNITED STATES DEPARTMENT OF …, priority 2016, dated 2021).
Blank lines part the entries; values can stand above or below the compound they belong to.

Target: Human LDHA (Homo sapiens (Human), UniProt P00338)
Experiment: human LDHA primary biochemical assay
Settings: biochemical LDHA inhibitory activity, assay of Example 1; activity level classes defined in nM
Source text: This example describes a human LDHA primary biochemical assay employed in the characterization of a compound of formula (I) in an embodiment of the invention.
Test compounds were placed in a Greiner Bio-One (Monroe, N.C.) 1536-well black solid bottom assay plate. 200 millimolar (mM) Tris HCl, pH 7.4, 100 micromolar (μM) EDTA and 0.01% TWEEN-20™, final concentration, was used as the assay buffer. The LDHA reagent was 2 nanomolar (nM) Human LDHA (Meridian Life Science, Inc., Memphis, Tenn.), final concentration, in assay buffer. The substrate reagent was 0.06 mM NADH and 0.2 mM sodium pyruvate, final concentration, in assay buffer. The resazurin/diaphorase coupling reagent was 0.037 mM resazurin and 0.133 milligrams per milliliter (mg/mL) diaphorase, final concentration, in assay buffer. The inhibition of LDHA activity was measured by fluorescence emission.

Structure (SMILES): COc1ccc(-c2cc(-c3nn(-c4nc(C(=O)O)cs4)c(CC4CC4)c3Cc3ccc(S(N)(=O)=O)c(F)c3)ccc2F)cc1Cl [Compound 191, 2-(3-(3′-chloro-6-fluoro-4′-methoxy-[1,1′-biphenyl]-3-yl)-5-(cyclopropylmethyl)-4-(3-fluoro-4-sulfamoylbenzyl)-1H-pyrazol-1-yl)thiazole-4-carboxylic acid]
IC50: < 100 nM

Structure (SMILES): CC(C)(C)c1ccc(-c2cc(-c3nn(-c4nc(C(=O)O)cs4)c(CC4CC4)c3Cc3ccc(S(N)(=O)=O)c(F)c3)ccc2F)cc1 [Compound 193, 2-(3-(4′-(tert-butyl)-6-fluoro-[1,1′-biphenyl]-3-yl)-5-(cyclopropylmethyl)-4-(3-fluoro-4-sulfamoylbenzyl)-1H-pyrazol-1-yl)thiazole-4-carboxylic acid]
IC50: 100 to 1000 nM

Structure (SMILES): Cc1ccc(-c2cccc(-c3nn(-c4nc(C(=O)O)cs4)c(CC4CC4)c3Cc3ccc(S(N)(=O)=O)c(F)c3)c2)cc1 [Compound 198, 2-(5-(cyclopropylmethyl)-4-(3-fluoro-4-sulfamoylbenzyl)-3-(4′-methyl-[1,1′-biphenyl]-3-yl)-1H-pyrazol-1-yl)thiazole-4-carboxylic acid]
IC50: < 100 nM

Structure (SMILES): N#Cc1ccc(-c2cc(-c3nn(-c4nc(C(=O)O)cs4)c(CC4CC4)c3Cc3ccc(S(N)(=O)=O)c(F)c3)ccc2F)cc1 [Compound 201, 2-(3-(4′-cyano-6-fluoro-[1,1′-biphenyl]-3-yl)-5-(cyclopropylmethyl)-4-(3-fluoro-4-sulfamoylbenzyl)-1H-pyrazol-1-yl)thiazole-4-carboxylic acid]
IC50: < 100 nM

Structure (SMILES): NS(=O)(=O)c1ccc(Cc2c(-c3ccc(F)c(N4CCCC4=O)c3)nn(-c3nc(C(=O)O)cs3)c2CC2CC2)cc1F [Compound 202, 2-(5-(cyclopropylmethyl)-3-(4-fluoro-3-(2-oxopyrrolidin-1-yl)phenyl)-4-(3-fluoro-4-sulfamoylbenzyl)-1H-pyrazol-1-yl)thiazole-4-carboxylic acid]
IC50: < 100 nM

Structure (SMILES): NS(=O)(=O)c1ccc(Cc2c(-c3cccc(-c4ccc(C(F)(F)C(F)(F)F)cc4)c3)nn(-c3nc(C(=O)O)cs3)c2CCC2CC2)cc1F [Compound 205, 2-(5-(2-cyclopropylethyl)-4-(3-fluoro-4-sulfamoylbenzyl)-3-(4′-(perfluoroethyl)-[1,1′-biphenyl]-3-yl)-1H-pyrazol-1-yl)thiazole-4-carboxylic acid]
IC50: 100 to 1000 nM

Structure (SMILES): CC(C)Cc1ccc(-c2cccc(-c3nn(-c4nc(C(=O)O)cs4)c(CCC4CC4)c3Cc3ccc(S(N)(=O)=O)c(F)c3)c2)cc1 [Compound 207, 2-(5-(2-cyclopropylethyl)-4-(3-fluoro-4-sulfamoylbenzyl)-3-(4′-isobutyl-[1,1′-biphenyl]-3-yl)-1H-pyrazol-1-yl)thiazole-4-carboxylic acid]
IC50: 100 to 1000 nM

Structure (SMILES): Cc1ccc(-c2ccc(-c3cc(-c4nn(-c5nc(C(=O)O)cs5)c(CC5CC5)c4Cc4ccc(S(N)(=O)=O)c(F)c4)ccc3F)cc2)s1 [Compound 209, 2-(5-(cyclopropylmethyl)-3-(6-fluoro-4′-(5-methylthiophen-2-yl)-[1,1′-biphenyl]-3-yl)-4-(3-fluoro-4-sulfamoylbenzyl)-1H-pyrazol-1-yl)thiazole-4-carboxylic acid]
IC50: 100 to 1000 nM

Structure (SMILES): CC(C)c1ccc(-c2cccc(-c3nn(-c4nc(C(=O)O)cs4)c(CC4CC4)c3Cc3ccc(S(N)(=O)=O)c(F)c3)n2)cc1 [Compound 211, 2-[5-(cyclopropylmethyl)-4-[(3-fluoro-4-sulfamoylphenyl)methyl]-3-[6-(4-isopropylphenyl)pyridin-2-yl]pyrazol-1-yl]-1,3-thiazole-4-carboxylic acid]
IC50: 100 to 1000 nM

Structure (SMILES): NS(=O)(=O)c1ccc(Cc2c(-c3ccc(F)c(-c4ccc(C5CC5)c(F)c4)c3)nn(-c3nc(C(=O)O)cs3)c2CC2CC2)cc1F [Compound 212, 2-{3-[3-(4-cyclopropyl-3-fluorophenyl)-4-fluorophenyl]-5-(cyclopropylmethyl)-4-[(3-fluoro-4-sulfamoylphenyl)methyl]pyrazol-1-yl}-1,3-thiazole-4-carboxylic acid]
IC50: 100 to 1000 nM

Structure (SMILES): Cc1cc(-c2cc(-c3nn(-c4nc(C(=O)O)cs4)c(CC4CC4)c3Cc3ccc(S(N)(=O)=O)c(F)c3)ccc2F)ccc1C(C)C [Compound 213, 2-[5-(cyclopropylmethyl)-3-[4-fluoro-3-(4-isopropyl-3-methylphenyl)phenyl]-4-[(3-fluoro-4-sulfamoylphenyl)methyl]pyrazol-1-yl]-1,3-thiazole-4-carboxylic acid]
IC50: < 100 nM

Continued, values first:

IC50: 100 to 1000 nM
Structure (SMILES): NS(=O)(=O)c1ccc(Cc2c(-c3cccc(-c4ccc(CC(F)(F)F)cc4)c3)nn(-c3nc(C(=O)O)cs3)c2CC2CC2)cc1F [Compound 187, 2-(5-(cyclopropylmethyl)-4-(3-fluoro-4-sulfamoylbenzyl)-3-(4′-(2,2,2-trifluoroethyl)-[1,1′-biphenyl]-3-yl)-1H-pyrazol-1-yl)thiazole-4-carboxylic acid]

IC50: < 100 nM
Structure (SMILES): NS(=O)(=O)c1ccc(Cc2c(-c3cccc(-c4nc5ccccc5[nH]4)c3)nn(-c3nc(C(=O)O)cs3)c2CC2CC2)cc1F [Compound 189, 2-(3-(3-(1H-benzo[d]imidazol-2-yl)phenyl)-5-(cyclopropylmethyl)-4-(3-fluoro-4-sulfamoylbenzyl)-1H-pyrazol-1-yl)thiazole-4-carboxylic acid]

IC50: 100 to 1000 nM
Structure (SMILES): CC(C)(C)c1cccc(-c2cc(-c3nn(-c4nc(C(=O)O)cs4)c(CC4CC4)c3Cc3ccc(S(N)(=O)=O)c(F)c3)ccc2F)c1 [Compound 192, 2-(3-(3′-(tert-butyl)-6-fluoro-[1,1′-biphenyl]-3-yl)-5-(cyclopropylmethyl)-4-(3-fluoro-4-sulfamoylbenzyl)-1H-pyrazol-1-yl)thiazole-4-carboxylic acid]

IC50: < 100 nM
Structure (SMILES): CN(C)c1cccc(-c2cc(-c3nn(-c4nc(C(=O)O)cs4)c(CC4CC4)c3Cc3ccc(S(N)(=O)=O)c(F)c3)ccc2F)c1 [Compound 194, 2-(5-(cyclopropylmethyl)-3-(3′-(dimethylamino)-6-fluoro-[1,1′-biphenyl]-3-yl)-4-(3-fluoro-4-sulfamoylbenzyl)-1H-pyrazol-1-yl)thiazole-4-carboxylic acid]

IC50: < 100 nM
Structure (SMILES): Cc1cc(-c2cc(-c3nn(-c4nc(C(=O)O)cs4)c(CC4CC4)c3Cc3ccc(S(N)(=O)=O)c(F)c3)ccc2F)ccc1F [Compound 195, 2-(5-(cyclopropylmethyl)-3-(4′,6-difluoro-3′-methyl-[1,1′-biphenyl]-3-yl)-4-(3-fluoro-4-sulfamoylbenzyl)-1H-pyrazol-1-yl)thiazole-4-carboxylic acid]

IC50: < 100 nM
Structure (SMILES): N#Cc1cccc(-c2cc(-c3nn(-c4nc(C(=O)O)cs4)c(CC4CC4)c3Cc3ccc(S(N)(=O)=O)c(F)c3)ccc2F)c1 [Compound 200, 2-(3-(3′-cyano-6-fluoro-[1,1′-biphenyl]-3-yl)-5-(cyclopropylmethyl)-4-(3-fluoro-4-sulfamoylbenzyl)-1H-pyrazol-1-yl)thiazole-4-carboxylic acid]

IC50: < 100 nM
Structure (SMILES): Cc1ccc(-c2cccc(-c3nn(-c4nc(C(=O)O)cs4)c(CC4CC4)c3Cc3ccc(S(N)(=O)=O)c(F)c3)c2)nc1 [Compound 203, 2-(5-(cyclopropylmethyl)-4-(3-fluoro-4-sulfamoylbenzyl)-3-(3-(5-methylpyridin-2-yl)phenyl)-1H-pyrazol-1-yl)thiazole-4-carboxylic acid]

IC50: < 100 nM
Structure (SMILES): Cc1ccc(-c2cccc(-c3nn(-c4nc(C(=O)O)cs4)c(CC4CC4)c3Cc3ccc(S(N)(=O)=O)c(F)c3)c2)cn1 [Compound 204, 2-(5-(cyclopropylmethyl)-4-(3-fluoro-4-sulfamoylbenzyl)-3-(3-(6-methylpyridin-3-yl)phenyl)-1H-pyrazol-1-yl)thiazole-4-carboxylic acid]

IC50: 100 to 1000 nM
Structure (SMILES): CC(C)c1ccc(-c2cccc(-c3nn(-c4nc(C(=O)O)cs4)c(CCC4CC4)c3Cc3ccc(S(N)(=O)=O)c(F)c3)c2)cc1 [Compound 206, 2-(5-(2-cyclopropylethyl)-4-(3-fluoro-4-sulfamoylbenzyl)-3-(4′-isopropyl-[1,1′-biphenyl]-3-yl)-1H-pyrazol-1-yl)thiazole-4-carboxylic acid]

IC50: 100 to 1000 nM
Structure (SMILES): Cc1ccc(-c2ccc(-c3cccc(-c4nn(-c5nc(C(=O)O)cs5)c(CC5CC5)c4Cc4ccc(S(N)(=O)=O)c(F)c4)c3)cc2)s1 [Compound 208, 2-(5-(cyclopropylmethyl)-4-(3-fluoro-4-sulfamoylbenzyl)-3-(4′-(5-methylthiophen-2-yl)-[1,1′-biphenyl]-3-yl)-1H-pyrazol-1-yl)thiazole-4-carboxylic acid]

IC50: < 100 nM
Structure (SMILES): CC(C)c1ccc(-c2cncc(-c3nn(-c4nc(C(=O)O)cs4)c(CC4CC4)c3Cc3ccc(S(N)(=O)=O)c(F)c3)c2)cc1 [Compound 210, 2-[5-(cyclopropylmethyl)-4-[(3-fluoro-4-sulfamoylphenyl)methyl]-3-[5-(4-isopropylphenyl)pyridin-3-yl]pyrazol-1-yl]-1,3-thiazole-4-carboxylic acid]

IC50: < 100 nM
Structure (SMILES): Cc1ncc(-c2cccc(-c3nn(-c4nc(C(=O)O)cs4)c(CC4CC4)c3Cc3ccc(S(N)(=O)=O)c(F)c3)c2)cn1 [Compound 214, 2-[5-(cyclopropylmethyl)-4-[(3-fluoro-4-sulfamoylphenyl)methyl]-3-[3-(2-methylpyrimidin-5-yl)phenyl]pyrazol-1-yl]-1,3-thiazole-4-carboxylic acid]

IC50: < 100 nM
Structure (SMILES): CC(C)c1cnc(-c2cccc(-c3nn(-c4nc(C(=O)O)cs4)c(CC4CC4)c3Cc3ccc(S(N)(=O)=O)c(F)c3)c2)s1 [Compound 215, 2-[5-(cyclopropylmethyl)-4-[(3-fluoro-4-sulfamoylphenyl)methyl]-3-[3-(5-isopropyl-1,3-thiazol-2-yl)phenyl]pyrazol-1-yl]-1,3-thiazole-4-carboxylic acid]
